Assay results as given in patent EP0007398A1, “N-thio-N-methyl carbamic acid derivative, process for its preparation, its application and pesticides containing it” (priority 1978, dated 1980).
Where two headings read alike, the source gives them in different places.

Experiments:
UV stability = type: physicochemical; details: qualitative statement
[1] = system: Aedes aegypti, Gelbfiebermücke; experiment: Initial activity in water against larvae; type: in vivo; details: 168 h
Method: Testinsekt: Aedes aegypti, Gelbfiebermücke Testmethode: Initialwirkung im Wasser
0,2 ml acetonische Wirkstofflösung werden mit 20 ml Leitungswasser gemischt. Pro Parzelle werden 10 Larven im letzten Larvenstadium angesetzt und bei 25°C und 60% rel. Feuchtigkeit inkubiert bis zum Schlüpfen der Adulten in den Kontrollparzellen. Unbehandeltc und mit Aceton behandelte Parzellen dienen als Kontrollen. Testdauer: 7 Tage. Die Wirkung wird ausgedrückt als prozentuale Reduktion der Zahl normaler Adulter im Vergleich zu den Kontrollparzellen.

[2] = Acute oral toxicity in the mouse; details: in vivo, Maus, read-out: akute orale Toxizität
Method: Die Verbindung wirkt als direktes Insektizid. Sie hat auch systemische Aktivität. Sie zeichnet sich unter Praxisbedingungen durch eine besonders günstige Wirkungsdauer aus. Die Verbindung ist ferner von Wert für die Bekämpfung von Schädlingen bei Tieren. So zeigt beispielsweise die Verbindung der Formel I in einer Konzentration von 10^-7 g/ml im Test gegen Aedes aegypti eine Wirkung von 100%. Die akute orale Toxizität an der Maus beträgt mehr als 1000 mg/kg.

[3] = system: Leptinotarsa decemlineata, Kartoffelkäfer; experiment: Initial activity on potato leaf discs; type: in vivo; details: foliar, 96 h, read-out: % Wirkung
Method: Testinsekt: Leptinotarsa decemlineata, Kartoffelkäfer Testmethode: Initialwirkung auf Blattrondellen
Kartoffelblattrondellen werden mit acetonischer Wirk- stofflösung besprüht. Pro Rondelle werden 5 frischgeschlüpfte Larven des ersten Stadiums angesetzt und bei 25°C und 60% rel. Feuchtigkeit inkubiert. Unbehandelte und mit Aceton behandelte Blattrondellen dienen als Kontrolle. Testdauer: 4 Tage. Die Resultate werden ausgedrückt als prozentuale Reduktion der Ueberlebensrate der Larven im Vergleich zu den Kontrollparzellen.

Water solubility = type: physicochemical; details: qualitative statement
From the text: Die Verbindung der Formel I ist wasserunlöslich und kann nach irgendeiner der für unlösliche Verbindungen üblichen Methoden konfektioniert werden.

[4] = system: Epilachna chrysomelina, Gurkenkäfer; experiment: Persistence test on treated pumpkin plants (7 days at 30°C with UV irradiation before infestation); type: in vivo; details: 168 h, wettable powder per Beispiel 2, 7 days 30°C + UV, then 10 first-instar larvae per plant, reduction of survival rate vs control, read-out: % Wirkung
Method: Testinsekt: Epilachna chrysomelina, Gurkenkäfer Testmethode: Persistenztest
(§1) Kürbispflanzen werden bis zum Abtropfen behandelt. Nach dem Antrocknen werden die Pflanzen in einem Ecophyten bei 30°C und UV-Bestrahlung während 7 Tagen inkubiert. Nach der Inkubation werden pro Pflanze 10 Larven des ersten Stadiums angesetzt. Die Resultate werden ausgedrückt als prozentuale Reduktion der Ueberlebensrate der Epilachna-Larven im Vergleich zu den Kontrollparzellen.
Die Formulierung der Wirkstoffe erfolgte gemäss Beispiel 2. ai = Wirkstoff

[5] = system: Leptinotarsa decemlineata, Kartoffelkäfer; experiment: Persistence test on treated potato plants (7 days at 30°C with UV irradiation before infestation); type: in vivo; details: 168 h, wettable powder per Beispiel 2, 7 days 30°C + UV, then 10 first-instar larvae per plant, reduction of survival rate vs control, read-out: % Wirkung
Method: Testinsekt: Leptinotarsa decemlineata, Kartoffelkäfer Testmethode: Persistenztest
as §1, with “Kartoffelpflanzen” for “Kürbispflanzen”, “Leptinotarsa-Larven” for “Epilachna-Larven”
Die Formulierung der Wirkstoffe erfolgte gemäss Beispiel 2 ai = Wirkstoff

| Compound | UV-Stabilität (UV stability) | mortality at 0.01 µg/mL ([1]; read-out: % Wirkung) [%] | mortality at 0.1 µg/mL ([1]; read-out: % Wirkung) [%] | mortality at 1 µg/mL ([1]; read-out: % Wirkung) [%] | mortality at 0.1 µg/mL ([1]; read-out: Wirkung) [%] | LD50 [2] [mg/kg] | mortality at 1e-09 g/cm2 [3] [%] | mortality at 1e-08 g/cm2 [3] [%] | mortality at 1e-07 g/cm2 [3] [%] | Wasserlöslichkeit (Water solubility) | mortality at 1 µg/mL ([1]; Dosis 10^-6 g ai/ml Wasser, last-instar larvae, 25°C, 7 days, reduction of number of normal adults vs control, read-out: % Wirkung) [%] | mortality at 0.1 µg/mL ([1]; Dosis 10^-7 g ai/ml Wasser, last-instar larvae, 25°C, 7 days, reduction of number of normal adults vs control, read-out: % Wirkung) [%] | mortality at 0.01 µg/mL ([1]; Dosis 10^-8 g ai/ml Wasser, last-instar larvae, 25°C, 7 days, reduction of number of normal adults vs control, read-out: % Wirkung) [%] | mortality at 0.01 % ([4]; Konz. 0,01 % ai) [%] | mortality at 0.03 % ([4]; Konz. 0,03 % ai) [%] | mortality at 0.01 % ([5]; Konz. 0,01 % ai) [%] | mortality at 0.03 % ([5]; Konz. 0,03 % ai) [%] | mortality at 1e-07 g/cm2 ([3]; Dosis 10^-7 g ai/cm^2, acetone solution, first-instar larvae, 25°C, 60% rel. humidity, 4 days, reduction of survival rate vs control) [%] | mortality at 1e-08 g/cm2 ([3]; Dosis 10^-8 g ai/cm^2, acetone solution, first-instar larvae, 25°C, 60% rel. humidity, 4 days, reduction of survival rate vs control) [%] | mortality at 1e-09 g/cm2 ([3]; Dosis 10^-9 g ai/cm^2, acetone solution, first-instar larvae, 25°C, 60% rel. humidity, 4 days, reduction of survival rate vs control) [%] |
| --- | --- | --- | --- | --- | --- | --- | --- | --- | --- | --- | --- | --- | --- | --- | --- | --- | --- | --- | --- | --- |
| CN(SN(C)C(=O)Oc1cccc2c1OC(C)(C)O2)C(=O)Oc1cccc2c1OC(C)(C)O2 [Formel I, Bis-[2,3-(isopropylidendioxy)-phenyl]-thio-bis-N-methylcarbamat] | hohe UV-Stabilität | 13 | 100 | 100 | 100 | > 1000 | 0 | 79 | 100 | wasserunlöslich | – | – | – | – | – | – | – | – | – | – |
| CNC(=O)Oc1cccc2c1OC(C)(C)O2 [Formel II] | – | – | – | – | – | – | – | – | – | – | 100 | 2 | 0 | 30 | 100 | 5 | 95 | 100 | 8 | 0 |
